From patent publication US8618289B2 (Ambit Biosciences Corporation, priority 2008, dated 2013) come the findings set out here.

The subject of test [1] is MEK1 phosphorylation in the A375 human melanoma cell line. Nature of the test: cells. As to conditions: A-375, read-out: pMEK IC50.
A further test deals with A375 cells. Nature of the test: cells. As to conditions: Homo sapiens, A-375, read-out: A375 Viability EC50.
For test [2], the target named is T1, RAF kinases (Homo sapiens, UniProt P15056, V600E). Nature of the test: biochemical.
Test [3] concerns the target T1, RAF kinases. As to conditions: read-out: BRAF V600E Kd; BRAF V600E.
In test [4] the target is RAF kinases (Homo sapiens, UniProt P04049). Nature of the test: biochemical.
The target in test [5] is RAF kinases (Homo sapiens, UniProt P15056). Nature of the test: biochemical.

Where a name gives a salt, the structure may show the parent alone. Read-outs that look alike come from different tables or passages of the source.

Chain of RAF kinases (Homo sapiens, UniProt P04049) (P04049 whole entry): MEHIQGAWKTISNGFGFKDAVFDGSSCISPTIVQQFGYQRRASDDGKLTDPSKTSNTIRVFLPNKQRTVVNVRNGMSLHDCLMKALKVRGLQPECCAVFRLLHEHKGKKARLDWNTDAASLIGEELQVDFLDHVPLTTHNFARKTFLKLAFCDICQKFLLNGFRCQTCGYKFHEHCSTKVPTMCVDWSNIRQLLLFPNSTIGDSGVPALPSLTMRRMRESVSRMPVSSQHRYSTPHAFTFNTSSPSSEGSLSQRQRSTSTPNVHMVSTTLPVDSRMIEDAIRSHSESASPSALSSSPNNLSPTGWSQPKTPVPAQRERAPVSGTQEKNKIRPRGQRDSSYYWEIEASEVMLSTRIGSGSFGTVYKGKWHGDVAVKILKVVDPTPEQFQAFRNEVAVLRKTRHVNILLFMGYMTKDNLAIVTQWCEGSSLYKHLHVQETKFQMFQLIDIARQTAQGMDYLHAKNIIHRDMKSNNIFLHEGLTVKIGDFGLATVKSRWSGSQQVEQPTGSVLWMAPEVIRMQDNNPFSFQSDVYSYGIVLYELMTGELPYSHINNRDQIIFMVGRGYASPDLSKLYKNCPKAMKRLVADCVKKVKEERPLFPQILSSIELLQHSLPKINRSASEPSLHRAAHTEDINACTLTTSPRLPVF
Chain of RAF kinases (Homo sapiens, UniProt P15056) (P15056 whole entry): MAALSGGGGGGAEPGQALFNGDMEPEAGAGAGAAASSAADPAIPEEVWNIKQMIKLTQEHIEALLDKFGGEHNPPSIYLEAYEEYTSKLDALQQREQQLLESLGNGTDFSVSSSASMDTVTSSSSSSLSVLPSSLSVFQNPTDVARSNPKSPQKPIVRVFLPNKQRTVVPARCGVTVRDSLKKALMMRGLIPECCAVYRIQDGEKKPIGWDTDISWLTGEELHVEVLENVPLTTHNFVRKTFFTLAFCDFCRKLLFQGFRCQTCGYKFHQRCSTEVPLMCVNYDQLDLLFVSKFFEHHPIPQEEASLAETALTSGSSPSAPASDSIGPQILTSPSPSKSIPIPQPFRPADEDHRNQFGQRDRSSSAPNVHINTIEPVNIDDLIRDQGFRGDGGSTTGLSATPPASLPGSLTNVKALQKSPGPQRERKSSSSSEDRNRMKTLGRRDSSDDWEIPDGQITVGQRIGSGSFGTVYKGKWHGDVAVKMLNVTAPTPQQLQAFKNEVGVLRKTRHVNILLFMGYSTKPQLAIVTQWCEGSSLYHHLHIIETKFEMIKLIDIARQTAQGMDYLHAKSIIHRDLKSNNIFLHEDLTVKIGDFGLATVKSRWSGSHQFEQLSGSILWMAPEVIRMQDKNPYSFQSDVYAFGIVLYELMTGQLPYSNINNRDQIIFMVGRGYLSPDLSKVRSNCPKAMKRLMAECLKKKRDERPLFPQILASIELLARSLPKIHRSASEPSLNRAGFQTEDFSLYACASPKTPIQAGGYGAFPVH
T1 sequence (P15056 whole entry V600E): as the sequence (P15056 whole entry) above, with V600E counted along it

In the case of `COc1cc2ncnc(Oc3cc(NC(=O)Nc4cc(C(C)(C)C)on4)ccc3Cl)c2cc1OC` [Ex 10, 1-(5-tert-butylisoxazol-3-yl)-3-(4-chloro-3-(6,7-dimethoxyquinazolin-4-yloxy)phenyl)urea], in test [1], the IC50 is above 1 µM. Moreover, the EC50 with A375 cells was above 1 µM. On RAF kinases [2], this molecule displayed a Kd of 0.5 to 1 µM.
For the molecule `CCOc1cc2ncnc(Oc3cccc(NC(=O)Nc4cc(C(C)(C)C)on4)c3)c2cc1OCC` [Ex 13, 1-(5-tert-butylisoxazol-3-yl)-3-[3-(6,7-diethoxyquinazolin-4-yloxy)phenyl]urea hydrochloride], the half-maximal inhibitory concentration (IC50) in test [1] is 0.25 to 0.5 µM. Besides, in the test with A375 cells, the EC50 lay within 0.5 to 1 µM. The same molecule gave a dissociation constant (Kd) on RAF kinases [2] of 0.25 to 0.5 µM.
In the case of `CC(C)(C)c1cc(NC(=O)Nc2cccc(Sc3ncnc4cc(F)c(F)cc34)c2)no1` [Ex 47, 1-(5-tert-butylisoxazol-3-yl)-3-(3-(6,7-difluoroquinazolin-4-ylthio)phenyl)urea], in test [1], the IC50 is above 1 µM. Moreover, in the test with A375 cells, the 50% effective concentration (EC50) is above 1 µM. At RAF kinases [2], the Kd lay within 0.5 to 1 µM.
Turning to `COc1ccc2c(Sc3cccc(NC(=O)Nc4cc(C(C)(C)C)on4)c3)ncnc2c1` [Ex 48, 1-(5-tert-butylisoxazol-3-yl)-3-(3-(7-methoxyquinazolin-4-ylthio)phenyl)urea], the IC50 in test [1] was in the range of 0.5 to 1 µM. For the same molecule, the EC50 in the test on A375 cells was above 1 µM. Besides, the Kd at RAF kinases [2] lay in the range of 0.25 to 0.5 µM.
On the same counts, the results for `CCOc1cc2ncnc(Sc3cccc(NC(=O)Nc4cc(C(C)(C)C)on4)c3)c2cc1OCC` [Ex 51, 1-(5-tert-butylisoxazol-3-yl)-3-[3-(6,7-diethoxyquinazolin-4-ylthio)phenyl]urea] are 0.25 to 0.5 µM, above 1 µM and 0.5 to 1 µM.
Take `CC(C)(C)c1cc(NC(=O)Nc2cccc(Sc3ncnc4cc5c(cc34)OCCO5)c2)no1` [Ex 54, 1-(5-tert-butylisoxazol-3-yl)-3-[3-(7,8-dihydro-[1,4]dioxino[2,3-g]quinazolin-4-ylthio)phenyl]urea hydrochloride]: the concentration for half-maximal inhibition (IC50) in test [1] was 0.5 to 1 µM. In the test on A375 cells, the half-maximal effective concentration (EC50) was above 1 µM. The Kd at RAF kinases [2] was 0.5 to 1 µM.
In the case of `COc1cc2c(Oc3cccc(NC(=O)Nc4cc(C(C)(C)C)on4)c3)ncnc2cc1O[C@H]1CCN(CC(F)F)C1` [Ex 103, (S)-1-(5-tert-butylisoxazol-3-yl)-3-(3-{7-[1-(2,2-difluoroethyl)pyrrolidin-3-yloxy]-6-methoxyquinazolin-4-yloxy}phenyl)urea], the concentration for half-maximal inhibition (IC50) in test [1] lay within 0.5 to 1 µM. Also, the EC50 in the test with A375 cells is above 1 µM. The molecule further came in with a Kd on RAF kinases [2] of 0.25 to 0.5 µM.
Regarding `COc1cc2ncnc(Oc3cccc(NC(=O)Nc4cc(C(C)(C)C)on4)c3)c2cc1O[C@H]1CCN(C(=O)OC(C)(C)C)C1` [Ex 108, (S)-tert-butyl 3-(4-(3-(3-(5-tert-butylisoxazole-3-yl)ureido)phenoxy)-7-methoxyquinazolin-6-yloxy)pyrrolidine-1-carboxylate], the IC50 in test [1] is below 0.25 µM. Besides, the EC50 in the test on A375 cells lay in the range of 0.5 to 1 µM. Moreover, at RAF kinases [2], the dissociation constant (Kd) fell in the range of 0.5 to 1 µM.
Take `COCC(C)(C)c1cc(NC(=O)Nc2cccc(Oc3ncnc4cc(OC)c(OC)cc34)c2)no1` [Ex 130, 1-(3-(6,7-dimethoxyquinazolin-4-yloxy)phenyl)-3-(5-(1-methoxy-2-methylpropan-2-yl)isoxazol-3-yl)urea]: the IC50 in test [1] lay within 0.25 to 0.5 µM. The half-maximal effective concentration (EC50) in the test on A375 cells was above 1 µM. In addition, the dissociation constant (Kd) at RAF kinases [2] lay in the range of 0.25 to 0.5 µM.
Take `COCCOc1cc(NC(=O)Nc2cccc(Sc3ncnc4cc(OC)c(OC)cc34)c2)ccc1C(F)(F)F` [Ex 148, 1-(3-(6,7-dimethoxyquinazolin-4-ylthio)phenyl)-3-(3-(2-methoxyethoxy)-4-(trifluoromethyl)phenyl)urea]: the IC50 in test [1] was above 1 µM. For the same molecule, in the test with A375 cells, the concentration for a half-maximal effect (EC50) was above 1 µM. Moreover, the dissociation constant (Kd) on RAF kinases [2] was 0.5 to 1 µM.
Consider `COc1cc2ncnc(Oc3cccc(NC(=O)Nc4cc(C(=O)N5CCOCC5)cc(C(F)(F)F)c4)c3)c2cc1OC` [Ex 149, 1-(3-(6,7-dimethoxyquinazolin-4-yloxy)phenyl)-3-(3-(morpholine-4-carbonyl)-5-(trifluoromethyl)phenyl)urea], for which, in test [1], the half-maximal inhibitory concentration (IC50) is above 1 µM. The EC50 with A375 cells is above 1 µM. Besides, the dissociation constant Kd on RAF kinases [2] lay within 0.5 to 1 µM.
Consider `COc1cc2ncnc(Oc3cccc(NC(=O)Nc4cc(C(C)(C)C)nn4-c4ccccc4)c3)c2cc1OC` [Ex 153, 1-(3-tert-butyl-1-phenyl-1H-pyrazol-5-yl)-3-(3-(6,7-dimethoxyquinazolin-4-yloxy)phenyl)urea], for which, in test [1], the IC50 was below 0.25 µM. On RAF kinases [2], this molecule registered a dissociation constant (Kd) of 0.5 to 1 µM.
For `COCCOc1cc2ncnc(Oc3cccc(NC(=O)Nc4cc(C(C)C)no4)c3)c2cc1OC` [Ex 215, 1-(3-isopropylisoxazol-5-yl)-3-(3-(6-methoxy-7-(2-methoxyethoxy)quinazolin-4-yloxy)phenyl)urea], the dissociation constant (Kd) at RAF kinases [3] was below 0.25 µM; on RAF kinases [4] it was 0.25 to 0.5 µM; on RAF kinases [5], 0.25 to 0.5 µM. In addition, the IC50 in test [1] was 0.5 to 1 µM. Moreover, in the test on A375 cells, the 50% effective concentration (EC50) is above 1 µM.
On to `COCCOc1cc2ncnc(Sc3cccc(NC(=O)Nc4cc(C(C)(CF)CF)on4)c3)c2cc1OC` [Ex 230, 1-[5-(1,3-difluoro-2-methylpropan-2-yl)isoxazol-3-yl]-3-{3-[6-methoxy-7-(2-methoxyethoxy)quinazolin-4-ylthio]phenyl}urea], for which the Kd on RAF kinases [3] is below 0.25 µM; at RAF kinases [4], 0.25 to 0.5 µM; on RAF kinases [5], 0.5 to 1 µM. For the same molecule, in test [1], the IC50 is below 0.25 µM. Further, the EC50 in the test on A375 cells lay in the range of 0.25 to 0.5 µM.
For `COCCOc1cc2ncnc(Sc3cccc(NC(=O)Nc4cc(C(C)(C)F)no4)c3)c2cc1OC` [Ex 234, 1-(3-(2-fluoropropan-2-yl)isoxazol-5-yl)-3-(3-(6-methoxy-7-(2-methoxyethoxy)quinazolin-4-ylthio)phenyl)urea], the equilibrium dissociation constant (Kd) on RAF kinases [3] was below 0.25 µM; on RAF kinases [4] it was 0.25 to 0.5 µM; on RAF kinases [5] it was 0.25 to 0.5 µM. The half-inhibitory concentration (IC50) in test [1] was below 0.25 µM. Moreover, the EC50 in the test on A375 cells was above 1 µM.
As for `COc1cc2ncnc(Sc3cccc(NC(=O)Nc4ccc(OC)c(C(F)(F)F)c4)c3)c2cc1OCCCN1CCS(=O)(=O)CC1` [Ex 246, 1-(4-methoxy-3-(trifluoromethyl)phenyl)-3-(3-(7-methoxy-6-(3-(4,4-dioxothiomorpholino)propoxy)quinazolin-4-ylthio)phenyl)urea], the values for the dissociation constant (Kd) at RAF kinases [3], at RAF kinases [4] and on RAF kinases [5] were below 0.25 µM, 0.25 to 0.5 µM and 0.25 to 0.5 µM, respectively. In addition, in test [1], the 50% inhibitory concentration (IC50) is below 0.25 µM. For the same molecule, the EC50 in the test on A375 cells was in the range of 0.5 to 1 µM.
As to `COCCOc1cc2ncnc(Sc3cccc(NC(=O)Nc4cc(C(C)(C)C)no4)c3)c2cc1OCCOC` [Ex 247, 1-(3-(6,7-bis(2-methoxyethoxy)quinazolin-4-ylthio)phenyl)-3-(3-tert-butylisoxazol-5-yl)urea], the Kd on RAF kinases [3] is below 0.25 µM; at RAF kinases [4] it was 0.25 to 0.5 µM; on RAF kinases [5], 0.25 to 0.5 µM. Further, in test [1], the IC50 is below 0.25 µM. Also, the EC50 in the test on A375 cells was above 1 µM.
In the case of `COc1cc2ncnc(Oc3cccc(NC(=O)Nc4cnn(C(C)(C)C)c4)c3)c2cc1OC` [Ex 252, 1-(1-tert-butyl-1H-pyrazol-4-yl)-3-(3-(6,7-dimethoxyquinazolin-4-yloxy)phenyl)urea], the dissociation constant (Kd) was below 0.25 µM on RAF kinases [3], 0.25 to 0.5 µM on RAF kinases [4] and 0.25 to 0.5 µM at RAF kinases [5]. For the same molecule, the IC50 in test [1] is above 1 µM. Also, the 50% effective concentration (EC50) in the test with A375 cells was above 1 µM.
Regarding `COc1cc2ncnc(Oc3cccc(NC(=O)Nc4cc(C(F)(F)F)nn4-c4ccccc4)c3C)c2cc1OC` [Ex 291, 1-(3-(6,7-Dimethoxyquinazolin-4-yloxy)-2-methylphenyl)-3-(1-phenyl-3-(trifluoromethyl)-1H-pyrazol-5-yl)urea], the dissociation constant Kd was below 0.25 µM on RAF kinases [3], 0.25 to 0.5 µM on RAF kinases [4] and 0.5 to 1 µM on RAF kinases [5]. In addition, the IC50 in test [1] was in the range of 0.5 to 1 µM. The concentration for a half-maximal effect (EC50) with A375 cells was above 1 µM.
Consider `COc1cc2ncnc(Oc3cccc(NC(=O)Nc4cc(C(C)(C)C)nn4-c4cnccc4C)c3)c2cc1OC` [Ex 303, 1-(3-tert-butyl-1-(4-methylpyridin-3-yl)-1H-pyrazol-5-yl)-3-(3-(6,7-dimethoxyquinazolin-4-yloxy)phenyl)urea], for which the equilibrium dissociation constant (Kd) on RAF kinases [3] was below 0.25 µM; on RAF kinases [4], 0.25 to 0.5 µM; at RAF kinases [5] it was 0.5 to 1 µM. In test [1], the IC50 is below 0.25 µM. In addition, the EC50 in the test with A375 cells was below 0.25 µM.
As for `COc1ccc(-n2nc(C(C)(C)C)cc2NC(=O)Nc2cccc(Oc3ncnc4cc(OC)c(OC)cc34)c2)cc1` [Ex 361, 1-(3-tert-butyl-1-(4-methoxyphenyl)-1H-pyrazol-5-yl)-3-(3-(6,7-dimethoxyquinazolin-4-yloxy)phenyl)urea], the Kd at RAF kinases [3] was below 0.25 µM; on RAF kinases [4] it was 0.5 to 1 µM; at RAF kinases [5] it was 0.25 to 0.5 µM. Besides, the concentration for half-maximal inhibition (IC50) in test [1] was below 0.25 µM. In addition, the EC50 in the test with A375 cells was above 1 µM.
On to `COc1cc2c(Oc3cccc(NC(=O)Nc4cc(C(F)(F)F)nn4-c4ccccc4)c3)ncnc2cc1OCCN1CCOCC1` [Ex 396, 1-(3-(6-Methoxy-7-(2-morpholinoethoxy)quinazolin-4-yloxy)phenyl)-3-(1-phenyl-3-(trifluoromethyl)-1H-pyrazol-5-yl)urea], for which the Kd at RAF kinases [3] is below 0.25 µM; on RAF kinases [4] it was 0.5 to 1 µM; on RAF kinases [5] it was 0.5 to 1 µM. In test [1], the concentration for half-maximal inhibition (IC50) fell in the range of 0.5 to 1 µM. The EC50 with A375 cells is 0.5 to 1 µM.
Consider `CCOc1cc2ncnc(Oc3cccc(NC(=O)Nc4cc(C(F)(F)F)nn4-c4ccccc4)c3)c2cc1OC` [Example 384, 1-(3-(7-ethoxy-6-methoxyquinazolin-4-yloxy)phenyl)-3-(1-phenyl-3-(trifluoromethyl)-1H-pyrazol-5-yl)urea], for which the Kd was below 0.25 µM on RAF kinases [3], 0.25 to 0.5 µM on RAF kinases [4] and 0.5 to 1 µM on RAF kinases [5]. Moreover, the IC50 in test [1] lay within 0.5 to 1 µM. Also, in the test with A375 cells, the concentration for a half-maximal effect (EC50) fell in the range of 0.25 to 0.5 µM.
